Literature values as cited in US20230058142A1, “LIQUID PHARMACEUTICAL COMPOSITION COMPRISING CYTISINE” (priority 2019, published 2023).

Molecular target: nicotinic α4β2 receptors (Homo sapiens, UniProt P17787+P43681)
Details: read-out: Ki, affinity for nicotinic α4β2 receptors

Sequence of nicotinic α4β2 receptors (P43681 29-627 limits assumed): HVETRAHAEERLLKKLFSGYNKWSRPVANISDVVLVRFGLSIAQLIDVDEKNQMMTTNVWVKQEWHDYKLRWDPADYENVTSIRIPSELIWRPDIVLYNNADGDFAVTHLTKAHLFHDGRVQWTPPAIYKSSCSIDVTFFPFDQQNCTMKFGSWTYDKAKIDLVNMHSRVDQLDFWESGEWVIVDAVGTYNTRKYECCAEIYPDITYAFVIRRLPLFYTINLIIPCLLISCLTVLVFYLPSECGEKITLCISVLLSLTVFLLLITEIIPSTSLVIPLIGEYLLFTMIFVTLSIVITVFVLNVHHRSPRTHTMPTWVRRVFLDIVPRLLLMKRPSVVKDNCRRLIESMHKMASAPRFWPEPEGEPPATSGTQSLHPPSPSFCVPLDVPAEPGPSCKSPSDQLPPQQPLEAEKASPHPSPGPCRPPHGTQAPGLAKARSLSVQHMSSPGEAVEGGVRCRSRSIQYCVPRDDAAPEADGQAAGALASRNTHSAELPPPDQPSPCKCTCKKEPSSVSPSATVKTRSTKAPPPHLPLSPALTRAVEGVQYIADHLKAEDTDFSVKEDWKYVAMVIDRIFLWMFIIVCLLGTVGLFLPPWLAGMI
Sequence of nicotinic α4β2 receptors (P17787 26-502): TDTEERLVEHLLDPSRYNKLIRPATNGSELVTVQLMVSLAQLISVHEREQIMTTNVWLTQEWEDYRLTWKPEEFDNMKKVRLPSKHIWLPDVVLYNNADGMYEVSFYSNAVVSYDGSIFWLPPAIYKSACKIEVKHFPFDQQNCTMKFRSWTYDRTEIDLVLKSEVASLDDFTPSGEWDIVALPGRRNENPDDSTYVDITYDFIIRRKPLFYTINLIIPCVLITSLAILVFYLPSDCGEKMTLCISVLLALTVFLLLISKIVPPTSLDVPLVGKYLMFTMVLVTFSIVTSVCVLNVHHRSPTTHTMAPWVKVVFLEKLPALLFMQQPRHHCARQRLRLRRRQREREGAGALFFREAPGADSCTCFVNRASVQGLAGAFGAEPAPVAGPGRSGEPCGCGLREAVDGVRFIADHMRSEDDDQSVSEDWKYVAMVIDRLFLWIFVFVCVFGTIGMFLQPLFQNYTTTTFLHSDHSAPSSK

Structure (SMILES): O=c1cccc2n1C[C@@H]1CNC[C@H]2C1 [Cytisine, (1R-cis)-1,2,3,4,5,6-hexahydro-1,5-methano-8H-pyrido[1,2-a][1,5]diazocin-8-one]
- Ki: 450 nM
